Assay results reported in article PMC10879502, “Linking ATP and allosteric sites to achieve superadditive binding with bivalent EGFR kinase inhibitors” (Communications Chemistry, 2024).

Columns and labels:
Assay in all cases: KINOMEscan
Type in all cases: binding
Details in all cases: 1 μM
FLT3(N841I) = biological target: T1, FLT3(N841I) (Homo sapiens, UniProt P36888, N841I)
T1 construct: purchased Eurofins DiscoverX Corporation

PRKCH = PRKCH (Homo sapiens, UniProt P24723)
[1] = biological target: T2, ABL1(F317L)-phosphorylated (Homo sapiens, UniProt P00519, F317L)
T2 construct: purchased Eurofins DiscoverX Corporation

ERK8 = ERK8 (Homo sapiens, UniProt Q8TD08)
AURKB = AURKB (Homo sapiens, UniProt Q96GD4)
RIPK2 = RIPK2 (Homo sapiens, UniProt O43353)
MLK2 = biological target: T3, MLK2 (Homo sapiens, UniProt Q02779)
T3 construct: purchased Eurofins DiscoverX Corporation

[2] = biological target: T4, ABL1(M351T)-phosphorylated (Homo sapiens, UniProt P00519, M351T)
T4 construct: purchased Eurofins DiscoverX Corporation

NIK = NIK (Homo sapiens, UniProt Q99558)
MRCKB = biological target: T5, MRCKB (Homo sapiens, UniProt Q9Y5S2)
T5 construct: purchased Eurofins DiscoverX Corporation

PHKG2 = PHKG2 (Homo sapiens, UniProt P15735)
HIPK2 = biological target: T6, HIPK2 (Homo sapiens, UniProt Q9H2X6)
T6 construct: purchased Eurofins DiscoverX Corporation

GAK = biological target: T7, GAK (Homo sapiens, UniProt O14976)
T7 construct: purchased Eurofins DiscoverX Corporation

STK35 = STK35 (Homo sapiens, UniProt Q8TDR2)
PIK3CA(Q546K) = PIK3CA(Q546K) (Homo sapiens, UniProt P42336, Q546K)
SIK2 = SIK2 (Homo sapiens, UniProt Q9H0K1)
VRK2 = VRK2 (Homo sapiens, UniProt Q86Y07)
FER = FER (Homo sapiens, UniProt P16591)
DRAK2 = biological target: T8, DRAK2 (Homo sapiens, UniProt O94768)
T8 construct: purchased Eurofins DiscoverX Corporation

p38-gamma = p38-gamma (Homo sapiens, UniProt P53778)
ERK5 = ERK5 (Homo sapiens, UniProt Q13164)
WEE1 = WEE1 (Homo sapiens, UniProt P30291)
DYRK2 = biological target: T9, DYRK2 (Homo sapiens, UniProt Q92630)
T9 construct: purchased Eurofins DiscoverX Corporation

MAP4K4 = biological target: T10, MAP4K4 (Homo sapiens, UniProt O95819)
T10 construct: purchased Eurofins DiscoverX Corporation

[3] = biological target: T11, ABL1(H396P)-phosphorylated (Homo sapiens, UniProt P00519, H396P)
T11 construct: purchased Eurofins DiscoverX Corporation

PFTK1 = PFTK1 (Homo sapiens, UniProt O94921)
RIOK3 = RIOK3 (Homo sapiens, UniProt O14730)
[4] = biological target: T12, ABL1(H396P)-nonphosphorylated (Homo sapiens, UniProt P00519, H396P)
T12 construct: purchased Eurofins DiscoverX Corporation

EGFR(L747-S752del+P753S) = EGFR(L747-S752del+P753S) (Homo sapiens, UniProt P00533, DEL747-752/P753S)
MEK5 = biological target: T13, MEK5 (Homo sapiens, UniProt Q13163)
T13 construct: purchased Eurofins DiscoverX Corporation

FLT3(ITD) = system: FLT3(ITD)
BRAF = biological target: T14, BRAF (Homo sapiens, UniProt P15056)
T14 construct: purchased Eurofins DiscoverX Corporation (KINOMEscan)

HASPIN = biological target: T15, HASPIN (Homo sapiens, UniProt Q8TF76)
T15 construct: purchased Eurofins DiscoverX Corporation

GSK3A = biological target: T16, GSK3A (Homo sapiens, UniProt P49840)
T16 construct: purchased Eurofins DiscoverX Corporation

CSNK2A1 = biological target: T17, CSNK2A1 (Homo sapiens, UniProt P68400)
T17 construct: purchased Eurofins DiscoverX Corporation

MAP3K15 = biological target: T18, MAP3K15 (Homo sapiens, UniProt Q6ZN16)
T18 construct: purchased Eurofins DiscoverX Corporation

ULK2 = ULK2 (Homo sapiens, UniProt Q8IYT8)
[5] = biological target: RSK3(Kin.Dom.2-C-terminal) (Homo sapiens, UniProt Q15349)
ERK4 = ERK4 (Homo sapiens, UniProt P31152)
IRAK3 = biological target: T19, IRAK3 (Homo sapiens, UniProt Q9Y616)
T19 construct: purchased Eurofins DiscoverX (KINOMEscan)

Chain of p38-gamma (P53778 whole entry): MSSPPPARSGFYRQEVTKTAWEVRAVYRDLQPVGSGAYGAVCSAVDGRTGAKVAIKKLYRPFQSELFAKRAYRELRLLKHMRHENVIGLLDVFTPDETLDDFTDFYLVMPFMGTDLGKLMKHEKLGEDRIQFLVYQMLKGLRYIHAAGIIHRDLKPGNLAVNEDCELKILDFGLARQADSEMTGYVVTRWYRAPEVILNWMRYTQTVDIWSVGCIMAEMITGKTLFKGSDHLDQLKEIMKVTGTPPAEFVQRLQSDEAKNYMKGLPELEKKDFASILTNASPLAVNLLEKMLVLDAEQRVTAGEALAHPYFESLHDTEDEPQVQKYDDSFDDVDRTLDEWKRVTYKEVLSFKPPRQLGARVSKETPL
Chain of FER (P16591 whole entry): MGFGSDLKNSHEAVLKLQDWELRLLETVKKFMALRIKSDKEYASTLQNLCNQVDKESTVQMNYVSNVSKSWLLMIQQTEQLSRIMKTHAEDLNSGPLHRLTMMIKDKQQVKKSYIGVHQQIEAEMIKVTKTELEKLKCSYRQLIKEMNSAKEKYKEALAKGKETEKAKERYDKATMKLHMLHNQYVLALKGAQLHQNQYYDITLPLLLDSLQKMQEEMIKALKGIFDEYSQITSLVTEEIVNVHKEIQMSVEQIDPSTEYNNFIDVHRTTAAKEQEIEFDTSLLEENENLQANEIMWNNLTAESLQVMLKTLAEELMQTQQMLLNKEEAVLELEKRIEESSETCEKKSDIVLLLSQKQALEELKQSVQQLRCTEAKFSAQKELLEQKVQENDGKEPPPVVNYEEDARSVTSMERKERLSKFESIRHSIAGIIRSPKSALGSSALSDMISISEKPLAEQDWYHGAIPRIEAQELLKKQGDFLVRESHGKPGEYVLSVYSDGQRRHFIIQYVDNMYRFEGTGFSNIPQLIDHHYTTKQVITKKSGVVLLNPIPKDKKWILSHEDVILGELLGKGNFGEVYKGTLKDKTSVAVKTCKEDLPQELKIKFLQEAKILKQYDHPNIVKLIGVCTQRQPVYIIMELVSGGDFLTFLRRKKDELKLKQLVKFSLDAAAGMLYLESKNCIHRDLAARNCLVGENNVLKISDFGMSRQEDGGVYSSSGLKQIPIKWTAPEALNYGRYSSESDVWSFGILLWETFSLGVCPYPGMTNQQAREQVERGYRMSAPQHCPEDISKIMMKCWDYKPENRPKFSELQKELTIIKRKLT
Chain of ULK2 (Q8IYT8 whole entry): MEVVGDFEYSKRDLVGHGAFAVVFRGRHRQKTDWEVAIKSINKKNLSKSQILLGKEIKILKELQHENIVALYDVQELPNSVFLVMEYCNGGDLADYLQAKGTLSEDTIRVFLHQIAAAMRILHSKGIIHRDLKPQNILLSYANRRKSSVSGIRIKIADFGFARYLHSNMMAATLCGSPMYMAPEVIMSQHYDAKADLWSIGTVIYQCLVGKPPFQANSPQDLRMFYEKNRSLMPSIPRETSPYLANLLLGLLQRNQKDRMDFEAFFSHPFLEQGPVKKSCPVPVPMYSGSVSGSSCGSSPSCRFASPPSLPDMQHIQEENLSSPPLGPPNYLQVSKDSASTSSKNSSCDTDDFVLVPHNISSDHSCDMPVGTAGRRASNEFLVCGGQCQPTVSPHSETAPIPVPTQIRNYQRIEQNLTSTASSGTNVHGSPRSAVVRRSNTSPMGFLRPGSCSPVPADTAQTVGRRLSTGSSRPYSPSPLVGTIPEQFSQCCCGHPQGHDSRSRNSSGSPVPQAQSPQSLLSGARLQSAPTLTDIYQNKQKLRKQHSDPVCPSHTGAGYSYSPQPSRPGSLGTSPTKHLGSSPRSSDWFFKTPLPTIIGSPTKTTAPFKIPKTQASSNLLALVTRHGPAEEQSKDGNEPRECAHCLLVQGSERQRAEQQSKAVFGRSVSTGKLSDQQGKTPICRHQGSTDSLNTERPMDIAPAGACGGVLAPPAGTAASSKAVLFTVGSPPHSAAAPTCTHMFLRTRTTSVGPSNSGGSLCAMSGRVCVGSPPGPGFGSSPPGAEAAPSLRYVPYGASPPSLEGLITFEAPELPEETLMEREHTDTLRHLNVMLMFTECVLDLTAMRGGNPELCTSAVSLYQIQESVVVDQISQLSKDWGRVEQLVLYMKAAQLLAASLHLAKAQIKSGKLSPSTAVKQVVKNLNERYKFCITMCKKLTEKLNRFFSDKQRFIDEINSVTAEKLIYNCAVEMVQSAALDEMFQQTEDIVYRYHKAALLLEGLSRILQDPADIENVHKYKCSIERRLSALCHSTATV
Chain of PHKG2 (P15735 whole entry): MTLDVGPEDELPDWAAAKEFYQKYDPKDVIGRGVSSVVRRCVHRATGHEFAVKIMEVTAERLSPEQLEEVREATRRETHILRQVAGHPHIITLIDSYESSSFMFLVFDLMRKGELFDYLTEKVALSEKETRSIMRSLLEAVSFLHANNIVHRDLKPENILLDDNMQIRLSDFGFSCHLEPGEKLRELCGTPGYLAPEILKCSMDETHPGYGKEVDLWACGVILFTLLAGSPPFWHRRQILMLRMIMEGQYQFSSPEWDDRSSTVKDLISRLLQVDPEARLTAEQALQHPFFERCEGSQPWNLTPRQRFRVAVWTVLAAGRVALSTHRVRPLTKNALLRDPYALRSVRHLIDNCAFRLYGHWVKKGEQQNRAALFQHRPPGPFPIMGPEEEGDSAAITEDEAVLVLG
Chain of VRK2 (Q86Y07 whole entry): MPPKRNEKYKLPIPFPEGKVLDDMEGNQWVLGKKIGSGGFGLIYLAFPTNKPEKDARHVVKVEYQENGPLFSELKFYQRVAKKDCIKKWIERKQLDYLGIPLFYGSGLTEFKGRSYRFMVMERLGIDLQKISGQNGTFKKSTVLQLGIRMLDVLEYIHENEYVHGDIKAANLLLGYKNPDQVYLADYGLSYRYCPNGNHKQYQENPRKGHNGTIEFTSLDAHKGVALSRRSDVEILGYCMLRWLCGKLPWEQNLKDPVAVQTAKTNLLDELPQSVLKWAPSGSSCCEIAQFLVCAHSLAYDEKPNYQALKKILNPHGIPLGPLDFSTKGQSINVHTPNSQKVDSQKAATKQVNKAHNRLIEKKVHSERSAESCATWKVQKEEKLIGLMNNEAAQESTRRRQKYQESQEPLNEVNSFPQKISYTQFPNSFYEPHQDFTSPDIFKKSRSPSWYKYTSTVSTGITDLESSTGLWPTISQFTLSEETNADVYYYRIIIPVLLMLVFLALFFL
Chain of PFTK1 (O94921 whole entry): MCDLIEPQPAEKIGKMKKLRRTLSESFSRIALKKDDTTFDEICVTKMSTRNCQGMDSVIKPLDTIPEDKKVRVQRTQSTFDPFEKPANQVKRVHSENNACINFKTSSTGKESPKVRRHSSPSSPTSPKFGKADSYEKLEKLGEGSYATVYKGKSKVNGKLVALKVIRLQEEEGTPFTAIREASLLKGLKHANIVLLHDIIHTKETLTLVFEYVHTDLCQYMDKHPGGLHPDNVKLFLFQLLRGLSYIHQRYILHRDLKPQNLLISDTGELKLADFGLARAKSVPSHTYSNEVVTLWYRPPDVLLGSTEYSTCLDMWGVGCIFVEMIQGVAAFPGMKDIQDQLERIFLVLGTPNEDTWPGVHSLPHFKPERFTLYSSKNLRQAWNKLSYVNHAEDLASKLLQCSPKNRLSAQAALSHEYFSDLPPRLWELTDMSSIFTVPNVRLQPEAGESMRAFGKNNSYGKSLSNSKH
Chain of PRKCH (P24723 whole entry): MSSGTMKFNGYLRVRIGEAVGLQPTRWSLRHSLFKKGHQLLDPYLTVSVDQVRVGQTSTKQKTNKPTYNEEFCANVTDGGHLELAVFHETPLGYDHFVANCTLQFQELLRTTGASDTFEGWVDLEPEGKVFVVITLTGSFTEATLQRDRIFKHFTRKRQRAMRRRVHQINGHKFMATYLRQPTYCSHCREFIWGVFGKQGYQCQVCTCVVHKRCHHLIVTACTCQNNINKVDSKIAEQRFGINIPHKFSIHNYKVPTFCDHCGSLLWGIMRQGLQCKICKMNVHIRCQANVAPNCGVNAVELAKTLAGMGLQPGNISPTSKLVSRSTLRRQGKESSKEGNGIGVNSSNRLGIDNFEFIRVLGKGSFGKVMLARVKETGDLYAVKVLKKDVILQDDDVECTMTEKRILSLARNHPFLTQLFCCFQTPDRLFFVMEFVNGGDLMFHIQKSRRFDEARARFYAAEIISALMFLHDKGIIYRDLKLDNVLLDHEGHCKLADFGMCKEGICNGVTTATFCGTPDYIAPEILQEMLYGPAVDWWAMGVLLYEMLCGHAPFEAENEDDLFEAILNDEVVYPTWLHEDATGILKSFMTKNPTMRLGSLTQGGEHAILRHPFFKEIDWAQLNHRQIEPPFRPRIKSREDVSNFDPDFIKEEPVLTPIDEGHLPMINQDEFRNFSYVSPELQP
T13 sequence (Q13163 whole entry): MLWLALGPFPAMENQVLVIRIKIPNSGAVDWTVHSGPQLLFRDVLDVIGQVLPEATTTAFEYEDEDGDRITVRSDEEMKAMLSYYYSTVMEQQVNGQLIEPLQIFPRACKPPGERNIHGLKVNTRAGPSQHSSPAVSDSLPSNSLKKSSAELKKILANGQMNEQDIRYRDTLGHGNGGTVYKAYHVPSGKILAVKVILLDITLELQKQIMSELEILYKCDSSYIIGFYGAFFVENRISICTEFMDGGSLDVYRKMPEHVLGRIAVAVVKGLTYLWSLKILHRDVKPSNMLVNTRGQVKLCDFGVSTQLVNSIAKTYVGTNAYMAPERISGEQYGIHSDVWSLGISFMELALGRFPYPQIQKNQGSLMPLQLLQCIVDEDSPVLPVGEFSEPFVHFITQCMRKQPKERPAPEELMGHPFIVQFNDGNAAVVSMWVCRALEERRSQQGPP
Chain of RSK3(Kin.Dom.2-C-terminal) (Q15349 415-672 limits assumed): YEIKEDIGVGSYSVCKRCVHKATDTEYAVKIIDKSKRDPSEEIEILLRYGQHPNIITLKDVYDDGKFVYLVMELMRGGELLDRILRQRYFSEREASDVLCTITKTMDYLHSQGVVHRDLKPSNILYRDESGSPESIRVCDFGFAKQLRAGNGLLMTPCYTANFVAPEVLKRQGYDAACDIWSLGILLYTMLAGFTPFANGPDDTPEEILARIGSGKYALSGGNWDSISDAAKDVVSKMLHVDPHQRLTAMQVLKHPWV

C=CC(=O)Nc1ccc(OC)c(Nc2cc(-c3[nH]c(CC)nc3-c3cccc(NC(=O)c4cccc5c4NC(=O)c4ccccc4N5)c3)ccn2)c1 [Compound 4]
POC (FLT3(N841I)): 97% of control | POC (PRKCH): 69% of control | POC [1]: 85% of control | POC (ERK8): 100% of control | POC (AURKB): 100% of control | POC (RIPK2): 62% of control | POC (MLK2): 97% of control | POC [2]: 67% of control | POC (NIK): 100% of control | POC (MRCKB): 1.7% of control | POC (PHKG2): 73% of control | POC (HIPK2): 100% of control | POC (GAK): 16% of control | POC (STK35): 69% of control | POC (PIK3CA(Q546K)): 100% of control | POC (SIK2): 100% of control | POC (VRK2): 100% of control | POC (FER): 36% of control | POC (DRAK2): 94% of control | POC (p38-gamma): 100% of control | POC (ERK5): 100% of control | POC (WEE1): 85% of control | POC (DYRK2): 75% of control | POC (MAP4K4): 6.1% of control | POC [3]: 74% of control | POC (PFTK1): 90% of control | POC (RIOK3): 100% of control | POC [4]: 97% of control | POC (EGFR(L747-S752del+P753S)): 16% of control | POC (MEK5): 41% of control | POC (FLT3(ITD)): 100% of control | POC (BRAF): 90% of control | POC (HASPIN): 100% of control | POC (GSK3A): 65% of control | POC (CSNK2A1): 100% of control | POC (MAP3K15): 74% of control | POC (ULK2): 80% of control | POC [5]: 80% of control | POC (ERK4): 100% of control | POC (IRAK3): 39% of control
